# Reference: patent US20230293473A1, “THERAPEUTIC DRUG FOR DISEASE CAUSED BY INTESTINAL IMMUNE DISORDER” (KEIO UNIVERSITY, priority 2020, published 2023)
# How the values were obtained:
# colonic APCs = assay: In vitro Treg induction assay: naive CD4+ cells with colonic APCs in the presence of muscarine; assay type: cell-based; settings: colonic APCs from WT mice precultured with muscarine
# Description: Naive CD4^+ cells were isolated from spleen in WT mice using naive CD4^+ T cell isolation kit. Naive CD4^+ cells (1×10^5) were cultured in RPMI-1640 medium supplemented with 10% FBS, 2 mM glutamine, 100 U/ml penicillin, 100 µg/ml streptomycin, and 55 μM 2-mercaptoethanol in 96 well plate.
# a, Three-dimensional reconstruction of CX3CR1^+ APC (green) and enteric neurons (purple) in colon in mice. b, Three-dimensional reconstruction of MHCII^+ APC (green), enteric Tuj^+ neurons (purple), and Foxp3^+ Tregs (yellow). c, d, Anatomical diagram (c) and operative field (d) for subdiaphragmatic truncal vagotomy. e, f, Colonic T cell phenotypes in mice after VGx surgery. […] Quantification (n=6/group). […]
# HVx mice = assay: In vivo administration of bethanechol, GTS-21 or MLA to HVx mice; colonic APC and Treg phenotypes
# Description: Bilateral or unilateral (left or right) subdiaphragmatic vagotomy was performed as previously reported (FIGS. 5c and 5d)^52. A midline incision was made to provide wide exposure of the upper abdominal organ in male mice anesthetized with the combination of medetomidine, midazolam, and butorphanol. The bilateral subdiaphragmatic trunks of vagal nerves along the esophagus were exposed and cut. In the sham operation group, these vagal trunks were exposed but not cut. Selective hepatic vagotomy (HVx) was performed as described (FIG. 7)^25. The ventral subdiaphragmatic vagal trunk was exposed as described above under anesthesia. […]
# FIG. 3 The liver-brain-gut axis regulates colonic Treg homeostasis through muscarinic signaling in APC. a-d, WT and mAChR TKO mice were subjected to Sham or HVx. e, WT and mAchR TKO mice were subjected to Sham or HVx and injected additionally treated with bethanechol (BETH; i.p. 300 μg/day) every day. Phenotypes of colonic immune cell were analyzed at day 2 after surgery (n=5/group). a, Frequency of ALDH^+ cells among MHC-II^+ colonic APCs. […] Quantification (right panel). b, Aldh1a1 and Aldh1a2 mRNA expression in colonic APC. c, e, Frequency of Foxp3^+ cells among CD4^+ cells in the colon. d, Frequency of RORγt^+ cells among colonic Foxp3^+ Tregs. […]
# [1] = tested on: hepatic vagal sensory afferents; assay: Selective hepatic vagal afferent blockade by perivagal application of capsaicin; colonic Treg and APC analysis; assay type: in vivo, mice; settings: perivagal capsaicin 10 mg/ml, 30 minutes; day 2
# Description: The hepatic branch of the vagal trunk was freed from the surrounding tissues by paraffin paper and then wrapped for 30 minutes with cotton bud soaked with vehicle (Tween 80: olive oil=1:9) alone or 10 mg/ml capsaicin dissolved in the vehicle solution. The cotton string was removed 30 minutes later and the abdominal incision was closed^28. Aldehyde dehydrogenase (ALDH) activity was determined using ALDEFLUOR staining kit according to the manufacturer's protocol. In brief, cells were suspended at a concentration of 10^6 cells/ml in ALDEFLUOR assay buffer containing activated ALDEFLUOR substrate (final concentration of 1.5 μM) with or without the ALDH inhibitor diethylaminobenzaldehyde (DEAB) (final concentration of 15 μM) and incubated at 37° C. for 30 minutes. […] Phenotypic analysis of T cell and APC in colon was performed at day 2 after application of capsaicin (c, d, n=16/group; e, f, n=8/group). a, b, Representative fluorescence images of TRPV1 (red) and DAPI (blue) in NG (a) and Th4-DRG (b). […] Quantification (right panel). d, Frequency of RORγt^+ cells among colonic Foxp3^+ Tregs. […] TRPV1^+ nerves in spinal cord (Th4-7 and Th13) and colonic immune cells were analyzed at day 7 after administration. g, Fluorescent immunohistochemistry of TRPV1^+ neuron in spinal cord (bar: 200 μm). […]
# [2] = tested on: common hepatic branch of the vagus nerve; assay: pERK immunostaining in nodose ganglion after capsaicin deafferentation of the common hepatic branch of the vagus nerve; assay type: in vivo, mice
# Description: The hepatic branch of the vagal trunk was freed from the surrounding tissues by paraffin paper and then wrapped for 30 minutes with cotton bud soaked with vehicle (Tween 80: olive oil=1:9) alone or 10 mg/ml capsaicin dissolved in the vehicle solution. The cotton string was removed 30 minutes later and the abdominal incision was closed^28. pEKR1/2 and c-Fos expression were analyzed immunohistochemically as reported 1. DSS-treated mice were transcardially perfused with PBS including 4% paraformaldehyde and 0.2% picric acid under anesthesia. The nodose ganglions and brains were collected, post-fixed in the same fixative for 2 hours to overnight at 4° C. and then incubated in phosphate buffer containing 30% sucrose for 48 hours. Longitudinal sections (8 μm) of NGs were cut with 48 μm intervals using a precision cryostat (Leica Microsystems, IL). Coronal sections (40 μm) of hindbrain were cut with 120 μm intervals using a freezing microtome. Rabbit polyclonal antibody to pERK1/2 (1/500) and Alexa 488-conjugated goat anti-rabbit IgG (1/500) were used. Fluorescence images were acquired with BX50 microscope and DP50 digital camera (Olympus). […] Neurons immunoreactive to pERK1/2 and c-Fos in medial NTS were counted. […] Representative fluorescence images of Alexa Fluor 488^+ neuron (green) and DAPI (blue) in NG at 1 week after injection of WGA in liver (c) and quantification (d). […]
compound,measurement,setting,value
C[C@@H]1O[C@H](C[N+](C)(C)C)C[C@H]1O [muscarine],generation of Foxp3+ Tregs,colonic APCs,enhanced
CC(C[N+](C)(C)C)OC(N)=O (stereo not drawn) [bethanechol],frequency of pTregs,"HVx mice; HVx WT mice, BETH i.p. 300 μg/day",increased
same,Aldh1a1 and Aldh1a2 expression in colonic APCs,"HVx mice; HVx mice compared with sham-operated mice, BETH i.p. 300 μg/day for 2 days",restored
COc1cc(CNC(=O)CCCC/C=C/C(C)C)ccc1O [capsaicin],aldehyde dehydrogenase activity in APCs,[1],reduced
same,colonic Treg numbers,[1],reduced
same,number of pERK positive cells in the left NG,[2],significantly reduced
